pIC50: −log10 of the molar value. Converted amounts (≈) assume the structure as drawn.
Key:
in vitro = in vitro ADME; conditions: human, Caco-2
Description: (§1) DMPK and physicochemical data were generated by Cyprotex Ltd, Alderley Park, Macclesfield, UK and Pharmaron Inc, Ningbo, China.

Caco2 cell = experiment: in vitro; format: in vitro ADME
Description: as §1

CYP 2D6 = CYP 2D6 (Homo sapiens, UniProt P10635); experiment: CYP450 inhibition (2D6); format: in vitro ADME
[1] = Human liver microsome stability; format: in vitro ADME; conditions: human liver microsomes
Description: PSA expression (%inhibition) 34%
Plots of activity against
values for each small molecule determined.
Macclesfield, UK and Pharmaron Inc, Ningbo, China.

[2] = Thermodynamic aqueous solubility; format: physicochemical
Plasma protein binding = format: in vitro ADME; conditions: mouse
CYP 3A4 = CYP 3A4 (Homo sapiens, UniProt P08684); experiment: CYP450 inhibition (3A4); format: in vitro ADME
Sequence of CYP 3A4 (P08684 whole entry): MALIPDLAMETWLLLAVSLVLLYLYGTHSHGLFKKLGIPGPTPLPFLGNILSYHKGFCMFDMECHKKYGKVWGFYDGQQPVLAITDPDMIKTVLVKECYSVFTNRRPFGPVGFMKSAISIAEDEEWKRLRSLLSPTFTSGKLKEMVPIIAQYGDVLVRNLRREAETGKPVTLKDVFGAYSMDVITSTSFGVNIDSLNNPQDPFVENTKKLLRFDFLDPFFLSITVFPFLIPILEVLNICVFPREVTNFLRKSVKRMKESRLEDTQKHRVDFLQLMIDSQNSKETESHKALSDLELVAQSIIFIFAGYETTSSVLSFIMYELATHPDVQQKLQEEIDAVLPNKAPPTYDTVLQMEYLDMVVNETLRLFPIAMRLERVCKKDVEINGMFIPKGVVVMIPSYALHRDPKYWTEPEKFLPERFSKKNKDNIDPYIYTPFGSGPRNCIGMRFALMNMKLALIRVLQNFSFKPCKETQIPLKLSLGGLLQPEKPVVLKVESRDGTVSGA

androgen receptor (AR) = molecular target: T1, androgen receptor (AR) (Homo sapiens, UniProt P10275)
T1 sequence (P10275 1-920): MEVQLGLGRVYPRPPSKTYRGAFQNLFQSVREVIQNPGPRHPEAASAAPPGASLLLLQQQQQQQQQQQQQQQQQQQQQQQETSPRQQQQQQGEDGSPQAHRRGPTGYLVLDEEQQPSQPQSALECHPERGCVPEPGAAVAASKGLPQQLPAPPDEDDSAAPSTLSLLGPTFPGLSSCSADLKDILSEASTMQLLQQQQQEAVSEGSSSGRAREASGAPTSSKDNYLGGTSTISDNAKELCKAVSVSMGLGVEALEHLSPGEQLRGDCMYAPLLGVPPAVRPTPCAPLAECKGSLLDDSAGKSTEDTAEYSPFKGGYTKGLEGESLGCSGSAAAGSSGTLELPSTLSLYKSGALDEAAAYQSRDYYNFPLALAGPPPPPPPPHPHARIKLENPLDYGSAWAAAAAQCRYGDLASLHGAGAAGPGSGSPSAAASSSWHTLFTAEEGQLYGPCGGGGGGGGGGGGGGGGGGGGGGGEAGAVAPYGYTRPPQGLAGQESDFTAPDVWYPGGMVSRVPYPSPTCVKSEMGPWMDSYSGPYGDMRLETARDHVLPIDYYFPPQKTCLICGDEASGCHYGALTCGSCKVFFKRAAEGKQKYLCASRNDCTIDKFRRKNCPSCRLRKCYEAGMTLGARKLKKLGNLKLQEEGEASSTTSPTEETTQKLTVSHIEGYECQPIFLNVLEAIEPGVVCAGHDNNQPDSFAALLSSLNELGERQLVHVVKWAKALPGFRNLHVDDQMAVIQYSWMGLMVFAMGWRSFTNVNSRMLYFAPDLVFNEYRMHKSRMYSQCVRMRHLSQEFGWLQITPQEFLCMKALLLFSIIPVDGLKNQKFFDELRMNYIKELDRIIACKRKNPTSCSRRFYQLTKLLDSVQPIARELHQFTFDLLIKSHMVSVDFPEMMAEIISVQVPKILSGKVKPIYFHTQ
Description: (§2) VCaP cells, obtained from the American Type Culture Collection, were maintained in Dulbecco’s Modified Eagles Medium (DMEM) supplemented with 10% foetal bovine serum. Cells were maintained at 37°C without antibiotics in a humidified atmosphere
Transient transfection and Luciferase Activity Assay:
Cells at 70–80% confluence in 24 well plates, were transferred to DMEM
300ng/well of the firefly reporter plasmid, GRE2-TATA-luc using JetPEI (PolyPLUS Transfection) according to the manufacturers’ protocol.
replaced with fresh DMEM +5% CSS containing either DMSO (vehicle control) or 0– 30 µM small molecules together with 1nM DHT. Twenty four hours later, medium was aspirated, cells were washed with PBS and extracted with Passive Lysis Buffer
Cell debris was removed by centrifugation at 13,000 xg for 5min and supernatants collected. Luciferase activity was measured in triplicate, using an in-house luciferase assay buffer (13 mM MgSO4 7H2O, 30 mM
amount of total cellular protein.
(§3) Inhibition of hormone-dependent expression of prostate specific antigen (PSA):
(§4) VCaP prostate cells were treated with 1 nM DHT in the absence or presence of inhibitor. After 24 hours cells were harvested and PSA detected by Western blotting and normalised against β-actin.
Luciferase activity in cells treated with small molecules was determined as a percentage of the untreated control, which was set at 100%. Plots of activity against small molecule concentration (log) were analysed in GraphPad PRISM 5 and IC50 values for each small molecule determined.

hERG channel = hERG channel (Homo sapiens, UniProt Q12809); experiment: hERG channel inhibition, Q-patch clamp assay
Sequence of hERG channel (Q12809 whole entry, canonical isoform): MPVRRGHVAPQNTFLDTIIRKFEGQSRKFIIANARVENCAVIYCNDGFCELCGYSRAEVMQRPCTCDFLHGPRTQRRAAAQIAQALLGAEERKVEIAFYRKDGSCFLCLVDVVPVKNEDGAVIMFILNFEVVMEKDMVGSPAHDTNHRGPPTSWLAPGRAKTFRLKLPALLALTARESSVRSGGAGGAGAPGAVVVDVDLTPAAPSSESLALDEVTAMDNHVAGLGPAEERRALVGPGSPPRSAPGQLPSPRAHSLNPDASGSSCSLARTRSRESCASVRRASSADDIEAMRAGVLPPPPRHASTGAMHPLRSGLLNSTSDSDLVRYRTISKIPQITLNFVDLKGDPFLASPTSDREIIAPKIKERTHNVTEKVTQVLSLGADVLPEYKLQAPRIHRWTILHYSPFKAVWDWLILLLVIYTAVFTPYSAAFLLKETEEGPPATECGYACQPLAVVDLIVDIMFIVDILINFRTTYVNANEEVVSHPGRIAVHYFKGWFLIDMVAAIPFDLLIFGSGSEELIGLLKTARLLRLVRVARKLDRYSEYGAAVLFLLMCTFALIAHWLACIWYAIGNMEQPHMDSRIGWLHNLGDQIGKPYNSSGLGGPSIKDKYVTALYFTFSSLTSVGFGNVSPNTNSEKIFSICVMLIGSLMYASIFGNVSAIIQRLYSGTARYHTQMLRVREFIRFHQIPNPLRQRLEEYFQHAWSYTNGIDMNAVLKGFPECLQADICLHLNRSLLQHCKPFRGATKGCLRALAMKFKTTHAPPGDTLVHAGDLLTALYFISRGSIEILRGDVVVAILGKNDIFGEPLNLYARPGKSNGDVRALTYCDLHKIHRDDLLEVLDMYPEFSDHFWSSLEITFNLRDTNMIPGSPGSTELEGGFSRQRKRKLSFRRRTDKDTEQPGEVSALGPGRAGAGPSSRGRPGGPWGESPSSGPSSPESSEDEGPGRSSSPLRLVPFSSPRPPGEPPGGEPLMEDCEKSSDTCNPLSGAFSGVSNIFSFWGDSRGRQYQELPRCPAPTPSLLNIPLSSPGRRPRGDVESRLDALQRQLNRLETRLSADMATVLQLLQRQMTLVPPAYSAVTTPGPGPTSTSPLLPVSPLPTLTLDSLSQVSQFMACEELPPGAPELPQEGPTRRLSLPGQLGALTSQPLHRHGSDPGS

AR-v (ARNTD–DBD) = molecular target: T2, AR-v (ARNTD–DBD) (Homo sapiens, UniProt P10275); experiment: AR-v splice variant activity in PC3 cells transfected with ARNTD–DBD expression plasmid and GRE2-luciferase reporter; conditions: PC-3, read-out: inhibition of AR-v activity
T2 sequence (P10275 1-632 limits assumed): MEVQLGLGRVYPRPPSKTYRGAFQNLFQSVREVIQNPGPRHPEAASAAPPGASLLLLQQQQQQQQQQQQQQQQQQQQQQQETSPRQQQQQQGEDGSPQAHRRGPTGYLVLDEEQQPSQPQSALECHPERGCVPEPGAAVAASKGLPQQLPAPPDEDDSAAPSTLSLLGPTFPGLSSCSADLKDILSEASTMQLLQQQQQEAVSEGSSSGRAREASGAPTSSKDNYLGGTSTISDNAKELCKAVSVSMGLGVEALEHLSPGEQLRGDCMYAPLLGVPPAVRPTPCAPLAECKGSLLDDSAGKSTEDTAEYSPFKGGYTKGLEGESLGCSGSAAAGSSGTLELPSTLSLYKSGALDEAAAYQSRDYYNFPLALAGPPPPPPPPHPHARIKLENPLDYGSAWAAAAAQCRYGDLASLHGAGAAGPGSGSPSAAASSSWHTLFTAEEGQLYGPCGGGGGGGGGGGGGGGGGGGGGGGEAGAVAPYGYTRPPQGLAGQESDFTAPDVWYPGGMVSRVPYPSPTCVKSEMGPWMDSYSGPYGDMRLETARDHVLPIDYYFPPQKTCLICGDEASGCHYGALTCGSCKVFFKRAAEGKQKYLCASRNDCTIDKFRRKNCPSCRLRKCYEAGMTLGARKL
Description: To this end, AR-v splice variant activity was determined through transfection of PC3 cells with an ARNTD–DBD expression plasmid and a GRE2-luciferase reporter gene (Figure 3).[43]

[3] = In vivo pharmacokinetic profile in male CD-1 mice; conditions: mouse
Description: Encouraged by the promising in vitro profile, compound 16 was advanced, and a pharmacokinetic (PK) profile was obtained in male CD-1 mice (Table 6).

[4] = system: prostate-specific antigen (PSA) expression; experiment: Inhibition of hormone-dependent expression of PSA in VCaP cells (Western blot); format: cell-based; conditions: 10 μM, 1 nM DHT, 24 h
Description: In addition to this, we evaluated hormone-dependent expression of prostate-specific antigen (PSA) in VCaP cells (see the Supporting Information).
as §2, §3, §4

Sequence of CYP 2D6 (P10635 whole entry): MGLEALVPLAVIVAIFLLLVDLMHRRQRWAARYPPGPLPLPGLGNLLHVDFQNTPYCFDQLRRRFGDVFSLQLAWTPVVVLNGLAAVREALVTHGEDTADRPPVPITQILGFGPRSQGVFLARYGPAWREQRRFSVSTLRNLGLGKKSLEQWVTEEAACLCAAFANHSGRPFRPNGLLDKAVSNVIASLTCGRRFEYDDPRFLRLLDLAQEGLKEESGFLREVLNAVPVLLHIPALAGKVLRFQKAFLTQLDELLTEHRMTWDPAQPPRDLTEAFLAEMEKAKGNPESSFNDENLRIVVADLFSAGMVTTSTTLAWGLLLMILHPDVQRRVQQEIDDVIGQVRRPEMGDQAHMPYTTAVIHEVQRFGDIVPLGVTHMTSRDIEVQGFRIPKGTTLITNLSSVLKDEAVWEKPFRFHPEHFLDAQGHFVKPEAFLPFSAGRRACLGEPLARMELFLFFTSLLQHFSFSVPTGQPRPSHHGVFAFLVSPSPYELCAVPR

In the case of `CSc1ccc(C(N)=O)cc1-c1ccc2c(cnn2C)c1` [Compound 16], the Papp A→B (in vitro; apical to basolateral, read-out: Caco2 permeability Papp A2B) was 33.1 ×10⁻⁶ cm/s, the Papp B→A (in vitro; basolateral to apical, read-out: Caco2 permeability Papp B2A) was 39.4 ×10⁻⁶ cm/s and the efflux ratio (in vitro; read-out: Caco2 efflux ratio) was 1.2. For the same compound, the “Caco2 permeability Papp A2B” value (Caco2 cell; apical to basolateral) was 3.31 ×10⁻⁶ cm/s, the “Caco2 permeability Papp B2A” value (Caco2 cell; basolateral to apical) was 3.94 ×10⁻⁶ cm/s and the “CYP450 inhibition, 2D6 isoform (in words)” value (CYP 2D6) was “no inhibition”. The pIC50 (CYP 2D6) was less than 4.60, the microsomal CLint ([1]; read-out: HLM CLint) was 25.6 µL/min/mg and the half-life ([1]; read-out: HLM t1/2) was 54 min. For the same compound, the solubility [2] was 2.6 µM (≈ 0.773 µg/mL), the fraction unbound (Plasma protein binding) was 0.069 and the “CYP450 inhibition, 3A4 isoform (in words)” value (CYP 3A4) was “no inhibition”. For the same compound, the pIC50 (CYP 3A4) was less than 4.60, the “increase in potency over initial hit compound 7” value (androgen receptor (AR); VCaP GRE2-luciferase IC50 ratio) was 60 fold and the “Lipophilic Ligand Efficiency (LLE)” value (androgen receptor (AR); from VCaP GRE2-luciferase IC50 and cLogP) was 4.7. For the same compound, the pIC50 (androgen receptor (AR); read-out: VCaP GRE2-luciferase IC50, VCaP cells, 1 nM DHT, 24 h, 0–30 µM compound) was 6.92, the “hERG channel inhibition (in words)” value (hERG channel; Q-patch clamp assay) was “no hERG channel inhibition” and the pIC50 (hERG channel; read-out: hERG IC50) was less than 5.00. For the same compound, the inhibition at 10 µM (AR-v (ARNTD–DBD)) was 35%, the “AUC0–t” value ([3]; iv 1 mg/kg) was 131 ng·h/mL and the “AUC0–∞” value ([3]; iv 1 mg/kg) was 132 ng·h/mL. The CL ([3]; iv 1 mg/kg) was 126 mL min^–1 kg^–1, the Cmax ([3]; iv 1 mg/kg) was 432 ng/mL and the Vss_obs ([3]; iv 1 mg/kg) was 1.38 L/kg. The t1/2 ([3]; iv 1 mg/kg) was 17.4 min, the “AUC0–t” value ([3]; po 10 mg/kg) was 173 ng·h/mL and the “AUC0–∞” value ([3]; po 10 mg/kg) was 208 ng·h/mL. The Cmax ([3]; po 10 mg/kg) was 195 ng/mL, the “F (oral bioavailability)” value ([3]; po 10 mg/kg) was 16% and the Tmax ([3]; po 10 mg/kg) was 0.25. The t1/2 ([3]; po 10 mg/kg) was 240 min and the “PSA expression (% inhibition)” value [4] was 34%.

Reference: PMC10726465, “Synthesis and Evaluation of Small Molecule Inhibitors of the Androgen Receptor N-Terminal Domain” (ACS Medicinal Chemistry Letters, 2023)
